Results as given in patent US20260262643A1, “HERBICIDAL BENZOXAZINES” (FMC CORPORATION, priority 2022, published 2026).

Experiments:
ragweed [1] = assay: Test A preemergence; type: in vivo, Ambrosia artemisiifolia; conditions: 0 to 100 scale
In short: (§1)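 Plants were grown in loam and sand and treated preemergence or postemergence (one- to two-leaf stage, 2–10 cm) with compound in solvent plus surfactant. Response was scored against untreated controls after 10 greenhouse days, where 0 means no effect and 100 complete control.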

galium = assay: Test A postemergence; type: in vivo, Galium aparine; conditions: postemergence, 10 days; for Galium plant response rating: 125 g ai/ha, 0 to 100 scale, 0 no effect, 100 complete control; for Plant response rating, Galium: 500 g ai/ha, visual injury, 0 to 100 scale (0 no effect, 100 complete control)
In short: as §1

kochia [2] = assay: Test A postemergence; type: in vivo, Bassia scoparia; conditions: postemergence, 10 days; for Kochia plant response rating: 125 g ai/ha, 0 to 100 scale, 0 no effect, 100 complete control; for Plant response rating, Kochia: 500 g ai/ha, visual injury, 0 to 100 scale (0 no effect, 100 complete control)
In short: as §1

foxtail, giant [3] = assay: Test A postemergence; type: in vivo, Setaria faberi; conditions: postemergence, 10 days; for Foxtail, Giant plant response rating: 125 g ai/ha, 0 to 100 scale, 0 no effect, 100 complete control; for Plant response rating, Foxtail, Giant: 500 g ai/ha, visual injury, 0 to 100 scale (0 no effect, 100 complete control)
In short: as §1

barnyardgrass [4] = assay: Test B flooded paddy test; type: in vivo, Echinochloa crus-galli; conditions: 250 g ai/ha, Flood, 13 days, 0 to 100 scale (0 no effect, 100 complete control)
In short: (§2)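 Species grown to 2-leaf stage; pots flooded 3 cm above soil and compound applied directly to paddy water, depth maintained throughout. After 13 days in greenhouse, plants visually rated against controls on 0–100 scale (0 no effect, 100 complete control); dash means no result.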

pigweed, palmer [5] = assay: Test A preemergence; type: in vivo, Amaranthus palmeri; conditions: 0 to 100 scale
In short: as §1

ducksalad = assay: Test B flooded paddy test; type: in vivo, Heteranthera limosa; conditions: 250 g ai/ha, Flood, 13 days, 0 to 100 scale (0 no effect, 100 complete control)
In short: as §2

horseweed = assay: Test A postemergence; type: in vivo, Erigeron canadensis; conditions: postemergence, 10 days; for Horseweed plant response rating: 125 g ai/ha, 0 to 100 scale, 0 no effect, 100 complete control; for Plant response rating, Horseweed: 500 g ai/ha, visual injury, 0 to 100 scale (0 no effect, 100 complete control)
In short: as §1

pigweed, palmer [6] = assay: Test A postemergence; type: in vivo, Amaranthus palmeri; conditions: postemergence, 10 days; for Pigweed, Palmer plant response rating: 125 g ai/ha, 0 to 100 scale, 0 no effect, 100 complete control; for Plant response rating, Pigweed, Palmer: 500 g ai/ha, visual injury, 0 to 100 scale (0 no effect, 100 complete control)
In short: as §1

wheat [7] = assay: Test A preemergence; type: in vivo, Triticum aestivum; conditions: 0 to 100 scale
In short: as §1

rice = assay: Test B flooded paddy test; type: in vivo, Oryza sativa; conditions: 250 g ai/ha, Flood, 13 days, 0 to 100 scale (0 no effect, 100 complete control)
In short: as §2

barnyardgrass [8] = assay: Test A postemergence; type: in vivo, Echinochloa crusgalli; conditions: postemergence, 10 days; for Barnyardgrass plant response rating: 125 g ai/ha, 0 to 100 scale, 0 no effect, 100 complete control; for Plant response rating, Barnyardgrass: 500 g ai/ha, visual injury, 0 to 100 scale (0 no effect, 100 complete control)
In short: as §1

ryegrass, Italian [9] = assay: Test A postemergence; type: in vivo, Lolium multiflorum; conditions: postemergence, 10 days; for Ryegrass, Italian plant response rating: 125 g ai/ha, 0 to 100 scale, 0 no effect, 100 complete control; for Plant response rating, Ryegrass, Italian: 500 g ai/ha, visual injury, 0 to 100 scale (0 no effect, 100 complete control)
In short: as §1

corn [10] = assay: Test A preemergence; type: in vivo, Zea mays; conditions: 0 to 100 scale
In short: as §1

ragweed [11] = assay: Test A postemergence; type: in vivo, Ambrosia artemisiifolia; conditions: postemergence, 10 days; for Ragweed plant response rating: 125 g ai/ha, 0 to 100 scale, 0 no effect, 100 complete control; for Plant response rating, Ragweed: 500 g ai/ha, visual injury, 0 to 100 scale (0 no effect, 100 complete control)
In short: as §1

oat, wild [12] = assay: Test A postemergence; type: in vivo, Avena fatua; conditions: postemergence, 10 days; for Oat, Wild plant response rating: 125 g ai/ha, 0 to 100 scale, 0 no effect, 100 complete control; for Plant response rating, Oat, Wild: 500 g ai/ha, visual injury, 0 to 100 scale (0 no effect, 100 complete control)
In short: as §1

blackgrass [13] = assay: Test A preemergence; type: in vivo, Alopecurus myosuroides; conditions: 0 to 100 scale
In short: as §1

oat, wild [14] = assay: Test A preemergence; type: in vivo, Avena fatua; conditions: 0 to 100 scale
In short: as §1

blackgrass [15] = assay: Test A postemergence; type: in vivo, Alopecurus myosuroides; conditions: postemergence, 10 days; for Blackgrass plant response rating: 125 g ai/ha, 0 to 100 scale, 0 no effect, 100 complete control; for Plant response rating, Blackgrass: 500 g ai/ha, visual injury, 0 to 100 scale (0 no effect, 100 complete control)
In short: as §1

soybean [16] = assay: Test A postemergence; type: in vivo, Glycine max; conditions: postemergence, 10 days; for Plant response rating, Soybean: 500 g ai/ha, visual injury, 0 to 100 scale (0 no effect, 100 complete control)
In short: as §1

barnyardgrass [17] = assay: Test A preemergence; type: in vivo, Echinochloa crusgalli; conditions: visual injury after 10 days, 0 to 100 scale, 0 is no effect, 100 is complete control
In short: as §1

soybean [18] = assay: Test A preemergence; type: in vivo, Glycine max; conditions: 0 to 100 scale
In short: as §1

sedge, umbrella = assay: Test B flooded paddy test; type: in vivo, Cyperus difformis; conditions: 250 g ai/ha, Flood, 13 days, 0 to 100 scale (0 no effect, 100 complete control)
In short: as §2

wheat [19] = assay: Test A postemergence; type: in vivo, Triticum aestivum; conditions: postemergence, 10 days; for Wheat plant response rating: 125 g ai/ha, 0 to 100 scale, 0 no effect, 100 complete control; for Plant response rating, Wheat: 500 g ai/ha, visual injury, 0 to 100 scale (0 no effect, 100 complete control)
In short: as §1

foxtail, giant [20] = assay: Test A preemergence; type: in vivo, Setaria faberi; conditions: 0 to 100 scale
In short: as §1

corn [21] = assay: Test A postemergence; type: in vivo, Zea mays; conditions: postemergence, 10 days; for Corn plant response rating: 125 g ai/ha, 0 to 100 scale, 0 no effect, 100 complete control; for Plant response rating, Corn: 500 g ai/ha, visual injury, 0 to 100 scale (0 no effect, 100 complete control)
In short: as §1

kochia [22] = assay: Test A preemergence; type: in vivo, Bassia scoparia; conditions: 0 to 100 scale
In short: as §1

ryegrass, Italian [23] = assay: Test A preemergence; type: in vivo, Lolium multiflorum; conditions: 0 to 100 scale
In short: as §1

[24] = 500 g ai/ha, visual injury after 10 days, 0 is no effect, 100 is complete control
[25] = 125 g ai/ha, visual injury after 10 days, 0 is no effect, 100 is complete control

COc1cc(C(=O)N2C[C@H](C)Oc3c(Cl)cccc32)cc(-n2cncn2)c1 [Compound 138]
Plant response rating, Ragweed (ragweed [1]; 125 g ai/ha): 0
Plant response rating, Ragweed (ragweed [1]; [24]): 0
Galium plant response rating (galium): 80
Plant response rating, Galium (galium): 100
Kochia plant response rating (kochia [2]): 80
Plant response rating, Kochia (kochia [2]): 80
Foxtail, Giant plant response rating (foxtail, giant [3]): 90
Plant response rating, Foxtail, Giant (foxtail, giant [3]): 90
Plant response rating, Barnyardgrass (barnyardgrass [4]): 35
Plant response rating, Pigweed, Palmer (pigweed, palmer [5]; 125 g ai/ha): 90
Plant response rating, Pigweed, Palmer (pigweed, palmer [5]; [24]): 100
Plant response rating, Ducksalad (ducksalad): 70
Horseweed plant response rating (horseweed): 0
Plant response rating, Horseweed (horseweed): 0
Pigweed, Palmer plant response rating (pigweed, palmer [6]): 30
Plant response rating, Pigweed, Palmer (pigweed, palmer [6]): 90
Plant response rating, Wheat (wheat [7]; 125 g ai/ha): 40
Plant response rating, Wheat (wheat [7]; [24]): 90
Plant response rating, Rice (rice): 35
Barnyardgrass plant response rating (barnyardgrass [8]): 60
Plant response rating, Barnyardgrass (barnyardgrass [8]): 80
Ryegrass, Italian plant response rating (ryegrass, Italian [9]): 70
Plant response rating, Ryegrass, Italian (ryegrass, Italian [9]): 100
Plant response rating, Corn (corn [10]; 125 g ai/ha): 10
Plant response rating, Corn (corn [10]; [24]): 10
Ragweed plant response rating (ragweed [11]): 0
Plant response rating, Ragweed (ragweed [11]): 40
Oat, Wild plant response rating (oat, wild [12]): 50
Plant response rating, Oat, Wild (oat, wild [12]): 80
Plant response rating, Blackgrass (blackgrass [13]; 125 g ai/ha): 80
Plant response rating, Blackgrass (blackgrass [13]; [24]): 90
Plant response rating, Oat, Wild (oat, wild [14]; 125 g ai/ha): 40
Plant response rating, Oat, Wild (oat, wild [14]; [24]): 90
Blackgrass plant response rating (blackgrass [15]): 80
Plant response rating, Blackgrass (blackgrass [15]): 90
Soybean plant response rating (soybean [16]; 125 g ai/ha, 0 to 100 scale, 0 no effect, 100 complete control): 100
Plant response rating, Soybean (soybean [16]): 100
Plant response rating, Barnyardgrass (barnyardgrass [17]; 125 g ai/ha): 90
Plant response rating, Barnyardgrass (barnyardgrass [17]; 500 g ai/ha): 100
Plant response rating, Soybean (soybean [18]; 125 g ai/ha): 70
Plant response rating, Soybean (soybean [18]; [24]): 100
Plant response rating, Sedge, Umbrella (sedge, umbrella): 75
Wheat plant response rating (wheat [19]): 40
Plant response rating, Wheat (wheat [19]): 80
Plant response rating, Foxtail, Giant (foxtail, giant [20]; 125 g ai/ha): 100
Plant response rating, Foxtail, Giant (foxtail, giant [20]; [24]): 100
Corn plant response rating (corn [21]): 80
Plant response rating, Corn (corn [21]): 90
Plant response rating, Kochia (kochia [22]; 125 g ai/ha): 0
Plant response rating, Kochia (kochia [22]; [24]): 50
Plant response rating, Ryegrass, Italian (ryegrass, Italian [23]; 125 g ai/ha): 80
Plant response rating, Ryegrass, Italian (ryegrass, Italian [23]; [24]): 100

CC(C)c1ncn(-c2ccc(OC(F)(F)F)c(C(=O)N3C[C@H](C)Oc4c(Cl)cccc43)c2)n1 [Compound 111]
Plant response rating, Ragweed (ragweed [1]; [25]): 20
Plant response rating, Ragweed (ragweed [1]; [24]): 90
Galium plant response rating (galium): 100
Plant response rating, Galium (galium): 100
Kochia plant response rating (kochia [2]): 80
Plant response rating, Kochia (kochia [2]): 100
Foxtail, Giant plant response rating (foxtail, giant [3]): 90
Plant response rating, Foxtail, Giant (foxtail, giant [3]): 90
Plant response rating, Barnyardgrass (barnyardgrass [4]): 55
Plant response rating, Pigweed, Palmer (pigweed, palmer [5]; [25]): 90
Plant response rating, Pigweed, Palmer (pigweed, palmer [5]; [24]): 100
Plant response rating, Ducksalad (ducksalad): 65
Horseweed plant response rating (horseweed): 10
Plant response rating, Horseweed (horseweed): 50
Pigweed, Palmer plant response rating (pigweed, palmer [6]): 70
Plant response rating, Pigweed, Palmer (pigweed, palmer [6]): 90
Plant response rating, Wheat (wheat [7]; [25]): 60
Plant response rating, Wheat (wheat [7]; [24]): 90
Plant response rating, Rice (rice): 0
Barnyardgrass plant response rating (barnyardgrass [8]): 30
Plant response rating, Barnyardgrass (barnyardgrass [8]): 80
Ryegrass, Italian plant response rating (ryegrass, Italian [9]): 30
Plant response rating, Ryegrass, Italian (ryegrass, Italian [9]): 60
Plant response rating, Corn (corn [10]; [25]): 30
Plant response rating, Corn (corn [10]; [24]): 40
Ragweed plant response rating (ragweed [11]): 60
Plant response rating, Ragweed (ragweed [11]): 70
Oat, Wild plant response rating (oat, wild [12]): 40
Plant response rating, Oat, Wild (oat, wild [12]): 50
Plant response rating, Blackgrass (blackgrass [13]; [25]): 30
Plant response rating, Blackgrass (blackgrass [13]; [24]): 70
Plant response rating, Oat, Wild (oat, wild [14]; [25]): 70
Plant response rating, Oat, Wild (oat, wild [14]; [24]): 90
Blackgrass plant response rating (blackgrass [15]): 40
Plant response rating, Blackgrass (blackgrass [15]): 50
Plant response rating, Soybean (soybean [16]): 100
Plant response rating, Barnyardgrass (barnyardgrass [17]; 125 g ai/ha): 90
Plant response rating, Barnyardgrass (barnyardgrass [17]; 500 g ai/ha): 100
Plant response rating, Soybean (soybean [18]; [25]): 70
Plant response rating, Soybean (soybean [18]; [24]): 100
Plant response rating, Sedge, Umbrella (sedge, umbrella): 98
Wheat plant response rating (wheat [19]): 10
Plant response rating, Wheat (wheat [19]): 40
Plant response rating, Foxtail, Giant (foxtail, giant [20]; [25]): 100
Plant response rating, Foxtail, Giant (foxtail, giant [20]; [24]): 100
Corn plant response rating (corn [21]): 40
Plant response rating, Corn (corn [21]): 80
Plant response rating, Kochia (kochia [22]; [25]): 80
Plant response rating, Kochia (kochia [22]; [24]): 90
Plant response rating, Ryegrass, Italian (ryegrass, Italian [23]; [25]): 70
Plant response rating, Ryegrass, Italian (ryegrass, Italian [23]; [24]): 100
